According to patent US20040229837A1, “Treatment of neurodegenerative diseases” (priority 2003, published 2004):

Key:
R6/2 mice [1] = assay: Motor coordination assessed by rotarod performance of R6/2 mice; type: in vivo; conditions: CGS treatment
wild-type mice [2] = assay: Choline/creatine levels after chronic CGS, wild-type mice; type: in vivo; conditions: chronic IP-administration of CGS
Procedure: Animals were anesthetized using chloral hydrate (4.088 mg/10 g, i.p. injection). Measurements were performed on a Biospec 4.7 T spectrometer with an active shielding gradient at 6.9 G/cm in 500 us. Mice were placed in a prone position with a custom-designed head-holder. A 20-cm birdcage coil was used for RF excitation, and a 2-cm-diameter surface coil placed directly over the head was used for signal receiving. The volume of interest (VOI) for ^1H-MRS measurements over the striatum was selected on the basis of coronal diffusion-weighted image using a pulse gradient spin-echo diffusion method with a repetition time (TR) of 1500 ms, an echo time (TE) of 62 ms, a field of view of 3 cm×3 cm, a slice thickness of 1 mm, a b value of 1300 s/mm^2, number averages of 2, a 256 -128 matrix size zero filled to 256 -156. The diffusion-sensitive gradients were applied in the read (×) direction before and after the refocusing pulse. Point-resolved spectroscopy (PRESS) sequence, preceded by three consecutive chemical shift selective saturation (CHESS) pulses for water suppression, was used for localized spectroscopy with a 3.5 ×3.5 ×3.5 mm^3voxel located in the striatum region, a spectral width (sw) of 4000 Hz, a TR of 3.5 s, a TE of 136 ms, signal averages of 256, and total scanning time of 8 min 32 sec. The peak areas of NAA, choline (Cho), and creatine (Cr), were recognized. […]

R6/2 mice [3] = assay: Number of glia by Nissl staining, R6/2 mice; type: in vivo; conditions: chronic CGS treatment
Procedure: (§1) Animals were deeply anesthetized with sodium pentobarbital (100 ug/g), and intracardially perfused with 4% paraformaldehyde in 0.1 M phosphate buffer (PB, pH 7.4). Brains were carefully removed, post-fixed with 4% paraformaldehyde/0. 1 M PB for 2-5 h, and then immersed in 30% glycerol in 0.1 M PB. Tissues were cut at 20 um on a freezing microtome (CM3050, Leica Microsystems Nussloch GmbH, Nussloch, Germany).
Serial-cut coronal tissue sections from the rostral segment of the neostriatum to the level of the anterior commissure (interaural 5.34 mm/bregma 1.54 mm to interaural 3.7 mm/bregma -0.1 mm) were used to define atrophy of the striatum and enlargement of the lateral ventricles. Total areas of the striatum or the lateral ventricles were measured using the software, NIH Image 1.62. Nissl- and GFAP-stained sections were quantified by counting the corresponding types of cells in defined areas of photomicrographs taken using a microscope in phase contrast.
Alternatively, elevated choline content may reflect a change in cell types. […] The number of glia was determined using the Nissl staining technique. […] The number of astrocytes, the most numerous of glial cells, was also assessed by staining the brain sections using an antibody against an astrocytic marker (glial fibrillary acidic protein, GFAP). […]

R6/2 mice [4] = assay: Number of activated (GFAP-positive) astrocytes by immunohistochemistry, R6/2 mice; type: in vivo
Procedure: as §1
Single antigen immunohistochemistry was carried out by the avidin-biotin-peroxidase complex method as previously described (Liu et al. (1998) FEBS Lett. 436:92-98). […] The pattern of double immunostaining was analyzed with the aid of a laser confocal microscope (Bio-Rad, MRC-1000, Hercules, Calif., USA).
(§2) Serial-cut coronal tissue sections from the rostral segment of the neostriatum to the level of the anterior commissure (interaural 5.34 mm/bregma 1.54 mm to interaural 3.7 mm/bregma -0.1 mm) were used to define atrophy of the striatum and enlargement of the lateral ventricles. Total areas of the striatum or the lateral ventricles were measured using the software, NIH Image 1.62. Nissl- and GFAP-stained sections were quantified by counting the corresponding types of cells in defined areas of photomicrographs taken using a microscope in phase contrast. […]

wild-type mice [5] = assay: Number of activated astrocytes, wild-type mice; type: in vivo; conditions: chronic CGS treatment
Procedure: Single antigen immunohistochemistry was carried out by the avidin-biotin-peroxidase complex method as previously described (Liu et al. (1998) FEBS Lett. 436:92-98). In brief, free-floating sections were incubated in the polyclonal anti-GFAP antiserum (1 :1000 dilution, Sigma, St. Louis, Mo., USA) at 4° C. for 36-48 h followed by a biotinconjugated goat anti-rabbit IgG (1:500, Vector Laboratories, Burlingame, Calif., USA) for 2 h, and then with an avidin-biotin-peroxidase complex for 2 h with three rinses of 0.1 M PB in between. Sections were incubated in 0.1 M PB containing 0.02% DAB and 0.08% nickel ammonium sulfate. Immunostaining was developed by adding H2O2 to a final concentration of 0.0024%. […] The pattern of double immunostaining was analyzed with the aid of a laser confocal microscope (Bio-Rad, MRC-1000, Hercules, Calif., USA).
as §2

rats = conditions: low dosage, Popoli et al. (2002); cited from earlier work
R6/2 mice [6] = assay: Locomotor activity of R6/2 mice; type: in vivo; conditions: ZM241385 7.5 ug/g given with CGS

SMILES: CCNC(=O)[C@H]1O[C@@H](n2cnc3c(N)nc(NCCc4ccc(CCC(=O)O)cc4)nc32)[C@H](O)[C@@H]1O [CGS]
- motor coordination assessed by rotarod performance (R6/2 mice [1]): not affected
- changes in choline/creatine levels (wild-type mice [2]): no detectable changes
- number of glial cells (R6/2 mice [3]): did not affect
- enhancement of the number of activated astrocytes (R6/2 mice [4]; R6/2 mice, chronic CGS treatment, in the striatum and in the cortex): 8 fold
- number of activated astrocytes (wild-type mice [5]): not affected

SMILES: Nc1nc2c(cnn2CCc2ccccc2)c2nc(-c3ccco3)nn12 [SCH58261]
- QA-induced excitotoxicity (rats): reduced QA-induced excitotoxicity

SMILES: Nc1nc(NCCc2ccc(O)cc2)nc2nc(-c3ccco3)nn12 [ZM241385]
- ameliorating effect of CGS on locomotor activity, blockade by antagonist (R6/2 mice [6]): could be blocked
- number of activated astrocytes in the striatum (R6/2 mice [4]; R6/2 mice treated with ZM and CGS simultaneously, n=4): 43±8 /mm^2
